Values joined by “and” are separate entries in the source; they are usually repeats but may differ in a detail not shown here. Equal entries are not always repeated. Where two headings read alike, the source gives them in different places.
Assays:
Triticum aestivum roots = assay: Wheat root elongation assay; assay type: in vivo; conditions: 0.1 μM, 14-day-old plants; control 10.4 cm
Method: Seeds of Triticum aestivum were surface sterilized by washing with 96% ethanol (10 min) and sown in a hydroponic growing system (Araponics, Liege, Belgium) using Hoagland's solution supplemented with either 0.1 μM TDZ, 0.1 μM ASES or 0.01% DMSO (solvent control). The plants were grown in a growth chamber at 25°C with a 16/8 h light period at 130 μM m^−2s^−1. The root lengths of at least 50 plants were measured 2 weeks after the plants had been sown. Seeds of Arabidopsis thaliana (wild-type Col-0) were surface sterilized by the same procedure as seeds of wheat and sown on vertical plates using half-strength Murashige-Skoog medium (supplemented with 0.1% sucrose and 6 g/L phytagel) containing either 0.1 μM TDZ, 0.1 μM ASES or 0.01% DMSO (solvent control). After vernalization (4 days in the dark, 4°C), the plates were transferred into a growth chamber (22°C, 16/8 light/dark, 130 μM m^−2s^−1). Root elongation was scored 2 weeks after the transfer, with measurements from at least 40 plants for each treatment. The whole experiment was repeated twice.

[1] = system: detached wheat leaves (ethylene production); assay: Ethylene accumulation assay; assay type: cell-based, Triticum aestivum; conditions: 10 μM, sealed vials; for ethylene production, fold of the control: days 3–6, dark; for ethylene production, fold of untreated leaves: first 3 days, dark
Method: Two detached leaf tips (final weight 50 mg) from 7-day-old wheat plants were incubated in 10 mL gas chromatography vials with either 1 mL of 0.1% DMSO (control), 10 μM ASES or 10 μM TDZ, and kept in the dark for 6 days at 25°C (1 day longer than the classical WLSA). On the third day, 1 mL of air from each vial was collected and the vials were then left open for 1 h and aerated with fresh air. Another 1 mL of air was collected from each vial on the sixth day. The amount of ethylene in each sample was determined using gas chromatography and the flame ionization detector method described by Fišerová et al. ([2001]).

[2] = system: Amaranthus caudatus cotyledon-hypocotyl explants; assay: Amaranthus bioassay (betacyanin synthesis); assay type: cell-based, Amaranthus caudatus var. atropurpurea; conditions: for EC50: Amaranthus caudatus
Method: Tobacco callus, Amaranthus and Wheat leaf senescence assay (WLSA) were performed as described by Holub et al. ([1998]) including the number of repetitions in each assay. An exception to the published protocols was that the tobacco callus assay was performed in 6-well microtiter plates (with each well containing 3 ml of Murashige Skoog medium into which 0.1 g of callus was added). Each compound was tested at least twice in each assay and in a wider concentration range to obtain concentration-dependent activity curves. IC50 means compound concentration at which chlorophyll degradation is inhibited by 50% and EC50 means half the maximal effective concentration.
Amaranthus assay evaluates the induction of betacyanin synthesis in Amaranthus (Amaranthus caudatus var. atropurpurea) cotyledons, which is induced by cytokinins (Bamberger and Mayer, [1960]). The WLSA evaluates the ability of compounds to retard chlorophyll degradation in excised wheat leaves that are kept in the dark. The wheat leaf segments (Triticum aestivum cv. Hereward) were used in all other experiments requiring wheat. Arabidopsis (Arabidopsis thaliana) leaf senescence assay was performed with detached leaves from 30-day-old plants, which were grown in soil in phytotron under standard conditions (Rivero et al., [2014]). Four leaves of a combined weight of 60 mg were placed in a six-well plate and stored in the dark for 12 days at 22°C. The leaves (except the fresh control leaves) floated on water solutions of tested compounds. Fresh control leaves were leaves detached from a plant and immediately used for chlorophyll determination. The duration of the senescence assay of Arabidopsis leaves was prolonged to highlight the difference in chlorophyll content between a negative control and treatments. Arabidopsis leaves were losing chlorophyll more slowly than wheat leaves. Chlorophyll extraction and spectrophotometric determination of its content was done according to Holub et al. ([1998]).

AHK3 = biological target: T1, AHK3 (Arabidopsis thaliana, UniProt Q9C5U1); assay: Cytokinin receptor activation assay in E. coli (AHK3); assay type: cell-based
T1 construct: expressed in transfected cells; host or cells: Escherichia coli strain KMI001, plasmid pSTV28-AHK3
T1 sequence (Q9C5U1 1-1036): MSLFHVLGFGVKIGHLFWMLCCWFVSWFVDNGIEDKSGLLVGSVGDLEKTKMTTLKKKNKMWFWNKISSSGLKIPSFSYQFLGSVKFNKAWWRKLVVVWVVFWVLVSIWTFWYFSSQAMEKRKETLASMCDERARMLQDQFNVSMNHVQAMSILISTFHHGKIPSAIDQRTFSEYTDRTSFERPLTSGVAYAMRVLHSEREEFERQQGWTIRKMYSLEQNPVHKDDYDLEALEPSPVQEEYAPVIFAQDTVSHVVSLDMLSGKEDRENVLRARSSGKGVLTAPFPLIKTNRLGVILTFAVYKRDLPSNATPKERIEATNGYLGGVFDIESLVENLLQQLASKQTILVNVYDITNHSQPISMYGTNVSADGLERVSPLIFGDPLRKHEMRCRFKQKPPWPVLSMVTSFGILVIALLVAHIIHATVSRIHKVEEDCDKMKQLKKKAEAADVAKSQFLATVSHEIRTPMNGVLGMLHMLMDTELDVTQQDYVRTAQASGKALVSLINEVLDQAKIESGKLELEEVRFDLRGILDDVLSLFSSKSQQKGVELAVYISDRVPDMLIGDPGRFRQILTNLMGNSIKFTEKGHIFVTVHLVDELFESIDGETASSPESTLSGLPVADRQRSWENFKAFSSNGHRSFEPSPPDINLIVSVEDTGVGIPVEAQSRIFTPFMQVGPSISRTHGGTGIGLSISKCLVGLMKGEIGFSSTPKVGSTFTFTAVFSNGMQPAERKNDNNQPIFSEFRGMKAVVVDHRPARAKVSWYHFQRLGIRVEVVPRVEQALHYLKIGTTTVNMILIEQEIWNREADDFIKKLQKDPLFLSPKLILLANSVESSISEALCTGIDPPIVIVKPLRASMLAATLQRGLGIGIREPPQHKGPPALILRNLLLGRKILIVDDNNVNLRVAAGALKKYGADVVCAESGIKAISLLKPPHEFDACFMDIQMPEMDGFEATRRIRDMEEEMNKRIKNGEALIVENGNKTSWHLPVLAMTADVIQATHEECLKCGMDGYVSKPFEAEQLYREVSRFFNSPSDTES
Source text: The activity of this enzyme is finally measured in the assay and corresponds to the ability of the tested compound to activate this cytokinin receptor. Both assays were done at least twice and the presented graphs are the most representative examples.

[3] = system: detached wheat leaves (membrane lipid peroxidation); assay: TBARS content (lipid peroxidation) in leaves from WLSA; assay type: cell-based, Triticum aestivum; conditions: 5 days in the dark, DMSO control = 100%
Method: Four leaf segments of combined weight of 100 mg from WLSA (5 days in the dark) were used for the determination of TBARS. Each sample was done in five repetitions (5 × 100 mg). The peroxidation of leaf membrane lipids was determined as described by Kováčik et al. ([2006]), with minor modifications—wheat leaves were extracted with 80% methanol and the trichloroacetic acid content was decreased to 0.1%.

Structure (SMILES)	wheat root length (Triticum aestivum roots)	ethylene production, fold of the control [1]	ethylene production, fold of untreated leaves [1]	activity in Amaranthus assay, fold exceeding all other cytokinins [2]	EC50 ([2]; read-out: Amaranthus bioassay (EC50, μM))	EC50 (AHK3)	TBARS content (relative %) ([3]; 0.01 μM)	TBARS content (relative %) ([3]; 0.1 μM)	TBARS content (relative %) ([3]; 1 μM)	TBARS content (relative %) ([3]; 10 μM)	TBARS content (relative %) ([3]; 100 μM, fresh control = 0)	fold lower potency than BA in inducing betacyanin [2]	fold lower potency than TDZ in inducing betacyanin [2]	EC50 ([2]; betacyanin synthesis, N.A. = not active, read-out: Amaranthus bioassay (EC50))	EC50 (AHK3; E. coli bacterial receptor assay, read-out: AHK3 receptor activation EC50)
O=C(Nc1ccccc1)Nc1cnns1 [TDZ, 1-phenyl-3-(1,2,3-thiadiazol-5-yl)urea, reference compound]	3.2 cm	2.18 fold	2.02 fold	at least 100 fold	0.004 µM	105 nM	101 (±5) %	80 (±3) %	71 (±6) %	68 (±8) %	55 (±10) %	–	–	–	–
COCCNC(=O)Nc1cnns1 [ASES, 1-(2-methoxy-ethyl)-3-1,2,3-thiadiazol-5-yl-urea]	11.0 cm	1.22 fold	1.36 fold	–	–	–	105 (±5) %	91 (±10) %	47 (±4) %	31 (±5) %	24 (±6) % and 24%	~5 fold	approximately 1,000 fold	4 µM	> 50000 nM

Reference: PMC6142817, “New Urea Derivatives Are Effective Anti-senescence Compounds Acting Most Likely via a Cytokinin-Independent Mechanism” (Frontiers in Plant Science, 2018)
